Here are results for one compound from patent US8742082B2, “Compositions and methods for influencing satiety, lipid metabolism, and fat utilization” (Nestec S.A., priority 2008, dated 2014).

Common to all, as to assay type: in vivo
One assay concerns Adiponectin. Description: Real-time PCR gene expression in peripheral tissues: adiponectin. Particulars: C57bl6j mice, high fat diet, 100 mg/kg/body weight in diet, 5 weeks. Here is the method: (§1) The expression of 45 genes was measured by real-time PCR in peripheral tissues to identify genes that were differentially expressed in response to oral administration of oleoylethanolamide (OEA) or a non-hydrolysable OEA analog (KDS 5104), which affect satiety, lipid metabolism, fat utilization, food intake, and body fat mass.
(§2) Animals, diet, and experimental design. Adult male C57bl6j mice purchased at 8 weeks of age were individually housed and maintained ad libitum on high fat diet and water for 2 weeks. Seven mice were randomly allocated in 3 groups and fed with a high fat diet (lipids represented 50% of daily energy) for 2 weeks. For one kilogram, the composition of the high fat diet was: 235 g casein, 201 g saccharose, 3.5 g L-cystine, 85 g starch, 116 g maltodextrin, 60 g cellulose, 12 g vitamins mix (AIN-93M, UPAE, Jouy-en-Josas, France), 51.5 g mineral mix (AIN-93Vx, UPAE, Jouy-en-Josas, France), and 236 g lard. Then, either OEA or KDS 5104 was added to the diet at a concentration of 100 mg/kg/body weight. The mice were kept under treatment for 5 weeks.
(§3) Sampling. At the end of the experimental period, mice were sacrificed by blood drawing (cardiac puncture) after anesthesia with isoflurane. Plasma was obtained by centrifugation (1,000 g for 10 min at 4° C.). Mesenteric, epididymal, inguinal and peritoneal adipose depots, as well as liver, stomach, small intestine mucosa, pancreas, and gastrocnemian muscle were removed and frozen into liquid nitrogen. Plasma, urine, feces, and organ samples were kept at −80° C. until analysis.
(§4) RNA extraction and gene expression. Total RNA from liver, intestine mucous membrane, adipose tissues, gastrocnemian muscle, pancreas and stomach were extracted with TRIzol reagent (Invitrogen, Carlsbad, USA) according to the manufacturer's instruction. The RNA concentration was determined on nanodrop from the absorbance at 260 nm. […] Real-time quantitative PCR (RT-qPCR) were performed on cDNA obtained as described above using a high through put system (Biomek 3000, Beckman & Coulter, Fullerton, USA) and a Lightcycler 480 (Roche/Hitachi, Basel, Switzerland) with SYBR Green Master mix+kit (Eurogentec, Philadelphia, USA). […] Values were expressed as ratio of RNA levels relative to control mice (diets with 0 mg of OEA/kg/body weight) using ΔΔ(Ct) (Livak K J & Schmittgen T D, 2001, Methods 25:402-8). Gene expression of the following genes was measured (abbreviation and GenBank Accession shown in parentheses).
Statistical analysis. […] Daily food intake was analyzed using two-way ANOVA on Statview software. […] For statistical analysis of the gene expression data, values were calculated relative to 18S expression for each mouse and gene.

The subject of another assay is Ghrelin. The assay can be described thus: Real-time PCR gene expression in peripheral tissues: ghrelin. To be noted: stomach; C57bl6j mice, high fat diet, 100 mg/kg/body weight in diet, 5 weeks. Here is the method: as §1
(§5) Animals, diet, and experimental design. Adult male C57bl6j mice purchased at 8 weeks of age were individually housed and maintained ad libitum on high fat diet and water for 2 weeks. Seven mice were randomly allocated in 3 groups and fed with a high fat diet (lipids represented 50% of daily energy) for 2 weeks. […]
as §4, with “Total RNA from liver, intestine mucous membrane, adipose tissues, gastrocnemian muscle, pancreas and stomach were extracted with TRIzol reagent (Invitrogen, Carlsbad, USA) according to the manufacturer's instruction.” left out, “parentheses). […]” for “parentheses).”
In general terms: Quantitative PCR measures a nucleic acid by following its amplification.

Assay [1] has as its system G protein coupled receptor 119 (GPR 119). The assay can be described thus: Real-time PCR gene expression in peripheral tissues: GPR119. Particulars: proximal intestine; C57bl6j mice, high fat diet, 100 mg/kg/body weight in diet, 5 weeks. Here is the method:
as §1, §5
as §4, with “Total RNA from liver, intestine mucous membrane, adipose tissues, gastrocnemian muscle, pancreas and stomach were extracted with TRIzol reagent (Invitrogen, Carlsbad, USA) according to the manufacturer's instruction.” left out, “parentheses). […]” for “parentheses).”

In assay [2] the test system is Peroxisome proliferator activated receptor alpha (PPAR α). Description: Real-time PCR gene expression in peripheral tissues: PPAR α. To be noted: proximal intestine; C57bl6j mice, high fat diet, 100 mg/kg/body weight in diet, 5 weeks. Here is the method: as §1, §5
as §4, with “Total RNA from liver, intestine mucous membrane, adipose tissues, gastrocnemian muscle, pancreas and stomach were extracted with TRIzol reagent (Invitrogen, Carlsbad, USA) according to the manufacturer's instruction.” left out, “parentheses). […]” for “parentheses).”

The subject of a further assay is Cholescystokinin (CCK). The assay can be described thus: Real-time PCR gene expression in peripheral tissues: CCK. To be noted: proximal intestine; C57bl6j mice, high fat diet, 100 mg/kg/body weight in diet, 5 weeks. Here is the method:
as §1, §5
as §4, with “Total RNA from liver, intestine mucous membrane, adipose tissues, gastrocnemian muscle, pancreas and stomach were extracted with TRIzol reagent (Invitrogen, Carlsbad, USA) according to the manufacturer's instruction.” left out, “parentheses). […]” for “parentheses).”

The subject of another assay is Leptin. Description: Real-time PCR gene expression in peripheral tissues: leptin. To be noted: C57bl6j mice, high fat diet, 100 mg/kg/body weight in diet, 5 weeks. Here is the method: as §1, §2, §3
(§6) RNA extraction and gene expression. Total RNA from liver, intestine mucous membrane, adipose tissues, gastrocnemian muscle, pancreas and stomach were extracted with TRIzol reagent (Invitrogen, Carlsbad, USA) according to the manufacturer's instruction. The RNA concentration was determined on nanodrop from the absorbance at 260 nm. Retro-transcription PCRs to synthesize cDNA were performed using an Applied Biosystem Thermal Cycler 2720 and Superscript II (Invitrogen, Carlsbad, USA) according to manufacturer's protocol. Real-time quantitative PCR (RT-qPCR) were performed on cDNA obtained as described above using a high through put system (Biomek 3000, Beckman & Coulter, Fullerton, USA) and a Lightcycler 480 (Roche/Hitachi, Basel, Switzerland) with SYBR Green Master mix+kit (Eurogentec, Philadelphia, USA). Primers for the selected genes were generated using online informatics assistance from the Lightcycler manufacturer (Roche). Databases used to identify the genes were (1) the NCBI database (GenBank) and (2) the IHOP (Information Hyperlinked over Protein) database (www.ihop-net.org/UniPub/iHOP/bng/). Values were expressed as ratio of RNA levels relative to control mice (diets with 0 mg of OEA/kg/body weight) using ΔΔ(Ct) (Livak K J & Schmittgen T D, 2001, Methods 25:402-8). Gene expression of the following genes was measured (abbreviation and GenBank Accession shown in parentheses).
(§7) Statistical analysis. […] Statistical analysis of physiological parameters and gene expression data was performed by one-way ANOVA on Statview software (SAS Institute, Cary, USA). Daily food intake was analyzed using two-way ANOVA on Statview software. Statistical significance was set up at the P<0.05 level, the P<0.01 level and the P<0.001 level. For statistical analysis of the gene expression data, values were calculated relative to 18S expression for each mouse and gene.

Assay [3] deals with Cannabinoid receptor 1 (CB 1). Description: Real-time PCR gene expression in peripheral tissues: CB1. Particulars: C57bl6j mice, high fat diet, 100 mg/kg/body weight in diet, 5 weeks. Here is the method:
as §1, §2, §3, §6, §7

For assay [4], the system named is Fatty acid amide hydrolase (FAAH). The assay can be described thus: Real-time PCR gene expression in peripheral tissues: FAAH. To be noted: C57bl6j mice, high fat diet, 100 mg/kg/body weight in diet, 5 weeks. Here is the method: as §1, §2, §3, §6, §7
The subject of assay [5] is N-acylsphingosine amidohydrolase-like (NAAA). Description: Real-time PCR gene expression in peripheral tissues: NAAA. Particulars: C57bl6j mice, high fat diet, 100 mg/kg/body weight in diet, 5 weeks. The method, then:
as §1, §2, §3, §6, §7

In assay [6] the test system is Oleoylethanolamide synthase (OEA synthase). The assay can be described thus: Real-time PCR gene expression in peripheral tissues: OEA synthase. To be noted: proximal intestine; C57bl6j mice, high fat diet, 100 mg/kg/body weight in diet, 5 weeks. The method, then:
as §1, §5
as §4, with “Total RNA from liver, intestine mucous membrane, adipose tissues, gastrocnemian muscle, pancreas and stomach were extracted with TRIzol reagent (Invitrogen, Carlsbad, USA) according to the manufacturer's instruction.” left out, “parentheses). […]” for “parentheses).”

Assay [7] deals with Glucose transporter 4 (Glut 4). The assay can be described thus: Real-time PCR gene expression in peripheral tissues: Glut 4. To be noted: muscle; C57bl6j mice, high fat diet, 100 mg/kg/body weight in diet, 5 weeks. The method, then:
as §1, §5
as §4, with “Total RNA from liver, intestine mucous membrane, adipose tissues, gastrocnemian muscle, pancreas and stomach were extracted with TRIzol reagent (Invitrogen, Carlsbad, USA) according to the manufacturer's instruction.” left out, “parentheses). […]” for “parentheses).”

The test system of assay [8] is Phosphoenolpyruvate carboxykinase (PEP CK). The assay can be described thus: Real-time PCR gene expression in peripheral tissues: PepCK. Particulars: liver; C57bl6j mice, high fat diet, 100 mg/kg/body weight in diet, 5 weeks. The method, then:
as §1, §5
as §4, with “Total RNA from liver, intestine mucous membrane, adipose tissues, gastrocnemian muscle, pancreas and stomach were extracted with TRIzol reagent (Invitrogen, Carlsbad, USA) according to the manufacturer's instruction.” left out, “parentheses). […]” for “parentheses).”

Assay [9] relates to Glucose 6-phosphatase (G6P). Description: Real-time PCR gene expression in peripheral tissues: G6P. To be noted: liver; C57bl6j mice, high fat diet, 100 mg/kg/body weight in diet, 5 weeks. The method, then:
as §1, §5
as §4, with “Total RNA from liver, intestine mucous membrane, adipose tissues, gastrocnemian muscle, pancreas and stomach were extracted with TRIzol reagent (Invitrogen, Carlsbad, USA) according to the manufacturer's instruction.” left out, “parentheses). […]” for “parentheses).”

Assay [10] deals with overall gene expression pattern. The assay can be described thus: Multivariate statistical analysis of overall gene expression pattern. To be noted: C57bl6j mice, high fat diet, 100 mg/kg/body weight in diet, 5 weeks. The method, then: as §1, §5
as §4, with “Total RNA from liver, intestine mucous membrane, adipose tissues, gastrocnemian muscle, pancreas and stomach were extracted with TRIzol reagent (Invitrogen, Carlsbad, USA) according to the manufacturer's instruction.” left out, “parentheses). […]” for “parentheses).”

Turning to `CCCCCCCC/C=C\CCCCCCCC(=O)N[C@H](C)CO` [KDS 5104, (Z)—(R)-9-octadecenamide, N-(2-hydroxyethyl, 1-methyl)], the “adiponectin at ep, ratio of RNA levels relative to control mice” value in the assay with Adiponectin (epidydimal adipose tissue) is −1.02. In addition, the “adiponectin at per, ratio of RNA levels relative to control mice” value with Adiponectin (peritoneal adipose tissue) is recorded as −1.52. The “ghrelin s, ratio of RNA levels relative to control mice” value in the assay with Ghrelin is given as 1.04. Moreover, in [1], the “GPR119 i, ratio of RNA levels relative to control mice” value is listed as 4.95. Besides, the “PPAR α i, ratio of RNA levels relative to control mice” value in assay [2] is given as 1.02. Also, the “CCK i, ratio of RNA levels relative to control mice” value with Cholescystokinin (CCK) came to 1.62. Besides, the “leptin at ep, ratio of RNA levels relative to control mice” value in the assay with Leptin (epidydimal adipose tissue) is 1.35. For the same compound, the “leptin at per, ratio of RNA levels relative to control mice” value in the assay with Leptin (peritoneal adipose tissue) is −1.32. The “leptin s, ratio of RNA levels relative to control mice” value in the assay with Leptin (stomach) is −1.02. Besides, the “CB1 at ep, ratio of RNA levels relative to control mice” value in assay [3] (epidydimal adipose tissue) is −1.48. Besides, in assay [3] (peritoneal adipose tissue), the “CB1 at per, ratio of RNA levels relative to control mice” value is −3.00. In assay [3] (proximal intestine), the “CB1 i, ratio of RNA levels relative to control mice” value is −1.25. Moreover, the “FAAH at ep, ratio of RNA levels relative to control mice” value in assay [4] (epidydimal adipose tissue) is reported as 9.71. Moreover, the “FAAH at per, ratio of RNA levels relative to control mice” value in assay [4] (peritoneal adipose tissue) was found to be 3.82. Also, the “FAAH i, ratio of RNA levels relative to control mice” value in assay [4] (proximal intestine) was 1.28. The “NAAA at ep, ratio of RNA levels relative to control mice” value in assay [5] (epidydimal adipose tissue) amounted to 1.38. Further, in [5] (peritoneal adipose tissue), the “NAAA at per, ratio of RNA levels relative to control mice” value was 1.52. Also, the “NAAA i, ratio of RNA levels relative to control mice” value in [5] (proximal intestine) is on record as 1.60. In addition, the “OEA synthase i, ratio of RNA levels relative to control mice” value in assay [6] was −1.36. The “Glut 4 m, ratio of RNA levels relative to control mice” value in assay [7] stood at 5.70. The “PepCK l, ratio of RNA levels relative to control mice” value in [8] worked out at 1.55. Besides, in assay [9], the “G6P l, ratio of RNA levels relative to control mice” value is on record as 2.12. Also, the “overall gene expression pattern (multivariate statistical analysis)” value in assay [10] is on record as “significant shift”.
